Source: patent publication US8012961B2, “Tricyclic antibiotics” (Actelion Pharmaceutical Ltd., priority 2008, dated 2011)
In brackets after ≈: the same amount, converted by molar mass.

Tested on: M. catarrhalis A894
Assay: MIC determination by microdilution in cation-adjusted Mueller-Hinton Broth (NCCLS)
Format: cell-based
Conditions: pH of the test medium 7.2-7.3; for MIC: Moraxella catarrhalis, A894, microdilution method; for MIC M. catarrhalis A894: microdilution method
Method: These assays have been performed following the description given in “Methods for dilution Antimicrobial Susceptibility Tests for Bacteria that Grow Aerobically, 4th ed.; Approved standard: NCCLS Document M7-A4; National Committee for Clinical Laboratory Standards: Villanova, Pa., USA, 1997”. Minimal inhibitory concentrations (MICs; mg/l) were determined in cation-adjusted Mueller-Hinton Broth by a microdilution method following NCCLS guidelines (National Committee for Clinical Laboratory Standards. Methods for Dilution Antimicrobial Susceptibility). The pH of the test medium was 7.2-7.3. All Example compounds were tested against several Gram positive and Gram negative bacteria such as S. aureus, E. faecalis, S. pneumoniae, M. catarrhalis or E.coli.

Q: With COc1ccc2ncc3c(c2n1)C(CN1CC[C@H](NCc2ccc4c(n2)NC(=O)CS4)[C@H](CO)C1)CO3 (relative stereo) [Example 36, 6-{(3R*,4S*)-[3-hydroxymethyl-1-((1RS)-8-methoxy-1,2-dihydro-3-oxa-5,9-diaza-cyclopenta[a]naphthalen-1-ylmethyl)-piperidin-4-ylamino]-methyl}-4H-pyrido[3,2-b][1,4]thiazin-3-one] as the compound, how does the MIC read?
A: Its MIC is at most 0.031 µg/mL.

Q: COc1ccc2ncc3c(c2n1)C(CN1CC2C(C1)C2NCc1ccc2c(n1)NC(=O)CO2)CO3 (racemic) [Example 32, 6-{[(1α,5α,6α)-3-((1RS)-8-methoxy-1,2-dihydro-3-oxa-5,9-diaza-cyclopenta[a]naphthalen-1-ylmethyl)-3-aza-bicyclo[3.1.0]hex-6-ylamino]-methyl}-4H-pyrido[3,2-b][1,4]oxazin-3-one] was tested. Which “MIC M. catarrhalis A894” value did it give?
A: The value was “≦0.031 mg/l”.

Q: With COc1ccc2ccc3c(c2n1)C(CN1CCC(NCc2ccc4c(n2)NC(=O)CO4)CC1)CO3 (racemic) [Example 5, rac-6-{[1-(2-methoxy-8,9-dihydro-furo[2,3-h]quinolin-9-ylmethyl) -piperidin-4-ylamino]-methyl}-4H-pyrido[3,2-b][1,4]oxazin-3-one] as the compound, how does the MIC read?
A: The MIC was at most 0.031 µg/mL.

Q: For COc1ccc2ncc3c(c2n1)C(CN1CCC[C@@H](CNC/C=C/c2cc(F)ccc2F)C1)CO3 (mixture of isomers) [Example 30], which “MIC M. catarrhalis A894” value is on record?
A: The value was “≦0.031 mg/l”.

Q: Which MIC does the source give for COc1ccc2ncc3c(c2n1)C(CN1CCO[C@@H](CNCc2ccc4c(n2)NC(=O)CS4)C1)CO3 (mixture of isomers) [Example 25, 6-({[(2S)-4-((1RS)-8-methoxy-1,2-dihydro-3-oxa-5,9-diaza-cyclopenta[a]naphthalen-1-ylmethyl)-morpholin-2-ylmethyl]-amino}-methyl)-4H-pyrido[3,2-b][1,4]thiazin-3-one] here?
A: The MIC was at most 0.031 µg/mL.

Q: COc1ccc2ccc3c(c2n1)C(CN1CCC(NCc2ccc4c(n2)NC(=O)CS4)CC1)CO3 (racemic) [Example 4, rac-6-{[1-(2-methoxy-8,9-dihydro-furo[2,3-h]quinolin-9-ylmethyl) -piperidin-4-ylamino]-methyl}-4H-pyrido[3,2-b][1,4]thiazin-3-one] was tested. Which MIC did it give?
A: Its MIC is at most 0.031 µg/mL.

Q: COc1ccc2ncc3c(c2n1)C(CN1CCC(NCc2ccc4c(n2)NC(=O)CO4)CC1)CO3 (racemic) [Example 6, rac-6-{[1-(8-methoxy-1,2-dihydro-3-oxa-5,9-diaza-cyclopenta[a]naphthalen-1-ylmethyl)-piperidin-4-ylamino]-methyl}-4H-pyrido[3,2-b][1,4]oxazin-3-one] was tested. Which MIC did it give?
A: Its MIC is at most 0.031 µg/mL.

Q: How did the MIC turn out when COc1ccc2ncc3c(c2n1)C(CN1CC[C@@H](CNCc2cc4c(cn2)OCCO4)C1)CO3 (mixture of isomers) [Example 12, (2,3-dihydro-[1,4]dioxino[2,3-c]pyridin-7-ylmethyl) -[(3S)-1-((1RS)-8-methoxy-1,2-dihydro-3-oxa-5,9-diaza-cyclopenta[a]naphthalen-1-ylmethyl)-pyrrolidin-3-ylmethyl]-amine] was run?
A: The MIC was at most 0.031 µg/mL.

Q: How did the MIC turn out when COc1ccc2ccc3c(c2n1)C(CN1CCC(NCc2ccc4c(n2)OCCO4)CC1)CO3 (racemic) [Example 11, rac-(2,3-dihydro-[1,4]dioxino[2,3-b]pyridin-6-ylmethyl)-[1-(2-methoxy-8,9-dihydro-furo[2,3-h]quinolin-9-ylmethyl)-piperidin-4-yl]-amine] was run?
A: The MIC was 0.125 µg/mL (≈ 0.27 µM).

Q: For COc1ccc2ncc3c(c2n1)C(CN1CC[C@H](NCc2ccc4c(n2)NC(=O)CO4)[C@H](CO)C1)CO3 (relative stereo) [Example 37, 6-{(3R*,4S*)-[3-hydroxymethyl-1-((1RS)-8-methoxy-1,2-dihydro-3-oxa-5,9-diaza-cyclopenta[a]naphthalen-1-ylmethyl)-piperidin-4-ylamino]-methyl}-4H-pyrido[3,2-b][1,4]oxazin-3-one], which MIC is on record?
A: Its MIC is at most 0.031 µg/mL.

Q: With COc1ccc2ncc3c(c2n1)C(CN1CCC(NCc2cc4c(nn2)OCCO4)CC1)CO3 (racemic) [Example 8, rac-(6,7-dihydro-[1,4]dioxino[2,3-c]pyridazin-3-ylmethyl)-[1-(8-methoxy-1,2-dihydro-3-oxa-5,9-diaza-cyclopenta[a]naphthalen-1-ylmethyl) -piperidin-4-yl]-amine] as the compound, how does the MIC read?
A: The MIC was at most 0.031 µg/mL.

Q: Which MIC does the source give for COc1ccc2ncc3c(c2n1)[C@@H](CN1CCC(NCc2ccc4c(n2)NC(=O)CS4)CC1)CO3 (single isomer, unassigned) [Example 16B] here?
A: The MIC was at most 0.031 µg/mL.

Q: COc1ccc2ncc3c(c2n1)C(CN1CC2C(C1)C2NCc1cc2c(cn1)OCCO2)CO3 (racemic) [Example 33, (2,3-dihydro-[1,4]dioxino[2,3-c]pyridin-7-ylmethyl)-[(1α,5α,6α)-3-((1RS)-8-methoxy-1,2-dihydro-3-oxa-5,9-diaza-cyclopenta[a]naphthalen-1-ylmethyl)-3-aza-bicyclo[3.1.0]hex-6-yl]amine] was tested. Which “MIC M. catarrhalis A894” value did it give?
A: Its value is “≦0.031 mg/l”.

Q: For COc1ccc2ncc3c(c2n1)C(CN1CC[C@@H](NCc2ccc4c(n2)NC(=O)CS4)[C@@H](F)C1)CO3 (relative stereo) [Example 17, 6-{[(3S*,4R*)-3-fluoro-1-((1RS)-8-methoxy-1,2-dihydro-3-oxa-5,9-diaza-cyclopenta[a]naphthalen-1-ylmethyl)-piperidin-4-ylamino]-methyl}-4H-pyrido[3,2-b][1,4]thiazin-3-one], which MIC is on record?
A: Its MIC is at most 0.031 µg/mL.

Q: With O=C1COc2ccc(CNC3CCN(CC4COc5cnc6ccc(F)cc6c54)CC3)nc2N1 (racemic) [Example 35, rac-6-{[1-(8-fluoro-1,2-dihydro-furo[2,3-c]quinolin-1-ylmethyl)-piperidin-4-ylamino]-methyl}-4H-pyrido[3,2-b][1,4]oxazin-3-one] as the compound, how does the MIC read?
A: Its MIC is at most 0.031 µg/mL.
